Tested on: guineagrass (Panicum maximum)
Assay: Test F preemergence
Assay type: in vivo
Conditions: 21 days, scale 0 to 100
Text: Seeds of plant species selected from bermudagrass (Cynodon dactylon), Surinam grass (Brachiaria decumbens), large (Lg) crabgrass (Digitaria sanguinalis), crabgrass, naked (naked crabgrass, Digitaria nuda), foxtail, green (green foxtail, Setaria viridis), johnsongrass (Sorghum halepense), kochia (Kochia scoparia), morningglory (pitted morningglory, Ipomoea lacunosa), nutsedge, purple (purple nutsedge, Cyperus rotundus), ragweed (common ragweed, Ambrosia elatior), mustard, black (black mustard, Brassica nigra), guineagrass (Panicum maximum), dallisgrass (Paspalum dilatatum), barnyardgrass (Echinochloa crus-galli), sandbur (southern sandbur, Cenchrus echinatus), sowthistle (common sowthistle, Sonchus oleraceous), Italian ryegrass (Lolium multiflorum), signalgrass (broadleaf signalgrass, Brachiaria platyphylla), dayflower (Virginia (VA) dayflower, Commelina virginica), bluegrass (annual bluegrass, Poa annua), quackgrass (Elytrigia repens), mallow (common mallow, Malva sylvestris), buckwheat, wild (wild buckwheat, Polygonum convolvulus), leafy spurge (Euphorbia esula), chickweed (common chickweed, Stellaria media), wild poinsettia (Euphorbia heterophylla), and pigweed (Amaranthus retroflexus) were planted into a blend of loam soil and sand and treated preemergence with test a chemical formulated in a non-phytotoxic solvent mixture which included a surfactant.
Treated plants and controls were maintained in a greenhouse for 21 days, after which time all species were compared to controls and visually evaluated. Plant response ratings, summarized in Table F, are based on a scale of 0 to 100 where 0 is no effect and 100 is complete control. A dash (-) response means no test result.

Measured: Plant response rating, Guineagrass

N#Cc1cccc(Oc2ncc(Cl)cn2)c1Oc1ncc(Cl)cn1 [Compound 3, 2,3-bis[(5-chloro-2-pyrimidinyl)oxy]benzonitrile]
100: 62 g ai/ha | 125 g ai/ha | 250 g ai/ha
